Measured values from patent publication US20230257374A1, “NOVEL KRAS G12C PROTEIN INHIBITOR, PREPARATION METHOD THEREFOR, AND USE THEREOF” (INNOVENT BIOLOGICS (SUZHOU) CO., LTD., priority 2019, published 2023).

Columns and labels:
[1] = system: NCI-H358 tumor (K-RAS G12C mutation); assay type: in vivo, BALB/c nude mice; conditions: for Day 0 Tumor volume (mm^3) Vaverage ± SEM: Day 0 (at grouping, before administration), 15 mg/kg PO QD group; for Day 21 Tumor volume (mm^3) Vaverage ± SEM / Tumor inhibition rate TGI (%) / Tumor regression: Day 21, 15 mg/kg PO QD; for Tumor regression: animals with regression / group of 8; for Day 0 Body weight (g) Waverage ± SEM: mouse, in vivo, po, 15 mg/kg
Method: The cells were digested with trypsin-EDTA twice a week for passaging as per conventional practice. When the cell saturation reached 80%-90% and a required amount was achieved, the cells were collected and counted for later use. […] 5% DMSO/5% Solutol/90% water was used as a blank control. 3) Tumor inoculation and drug administration: BALB/c nude mice, female, 6-8 weeks old, weighing 18-20 g. The experiment started after 3-7 days of adaptive feeding. 0.1 mL of NCI-H358 cells (5×10^6 cells) were inoculated subcutaneously on the right back of each mouse. The mice were grouped for administration when the average tumor volume reached approximately 150 mm^3. The animals were weighed before administration and the tumor volume was measured. Grouping was randomly performed according to the tumor volume.
Animals were monitored daily for health and death, and routine examinations include observation of the effect of tumor growth and drug treatment on the daily performance of the animals, such as behavioral activities, food and water intake, weight changes (measured once every other day), appearance, or other abnormal conditions. Animal mortality and side effects within each group were recorded based on the number of animals in the group.
Tumor diameters were measured 2-3 times weekly using a vernier caliper.
The tumor volume was calculated as follows: […]
where a and b represent the long and short diameters of the tumor, respectively.
The anti-tumor therapeutic effect of the compound was evaluated by tumor growth inhibition rate TGI (%) or relative tumor proliferation rate T/C (%).
TGI (%) was calculated as follows: […]
T/C (%) was calculated as follows: […]
where TRTV represents the relative tumor volume of the treatment group; CRTV represents the relative tumor volume of the solvent control group.
Based on the results of tumor measurement, the relative tumor volume (RTV) was calculated as follows: […]
where V0 represents the average tumor volume measured at the time of grouping and administration (i.e., d0), Vt represents the average tumor volume in a certain measurement, and TRTV and CRTV take the data on the same day.
After the completion of the experiment, tumors were weighed, and the percentage of Tweight/Cweight was calculated, where Tweight and Cweight represent the tumor weights of the treatment group and the solvent control group, respectively.
Data calculation and analysis: T test was employed for comparison between two groups. One-way ANOVA was employed for comparison between three or more groups. If there is a significant difference in F-values, multiple comparisons should be made after ANOVA analysis. All data analyses were performed with SPSS 17.0. p<0.05 was defined as a significant difference.

[2] = in vitro; conditions: human, Caco-2, pH 7.4
Method: Drug penetration test: the Transwell culture plate was retrieved from the incubator. […] All samples were prepared in double parallel. The integrity of the cell monolayer membrane after 2 hours of incubation was assessed using leakage of fluorescein; fluorescein stock solution was diluted with HBSS (25 mM HEPES, pH 7.4) to a final concentration of 100 μM. 100 μL of fluorescein solution was added to each well of the upper Transwell plate and 300 μL of HBSS (25 mM HEPES, pH 7.4) was added to each well of the lower receiving plate; after incubation at 37° C. for 30 min, 80 μL of the solution was pipetted from the upper and lower layers of each well to a new 96-well plate.
The apparent permeability coefficients (Papp, unit: cm/s) of the compounds in Caco-2 cells were calculated from the specific concentrations at the acceptor and donor ends, and the specific calculation formula is as follows: […]
where VA represents the volume of the acceptor end solution (0.3 mL for Ap→Bl, 0.1 mL for Bl→Ap); Area represents the area of the Transwell-96 well plate (0.143 cm^2); time represents the incubation time (unit: s); [drug]acceptor represents the drug concentration (ratio of peak area to internal standard area) at the acceptor end; [drug]initial, donor represents the drug concentration at the donor end (ratio of peak area to internal standard area).
The efflux ratio was calculated as follows: […]
where Papp (B-A) represents the apparent permeability coefficient from base end to top end; Papp (A-B) represents the apparent permeability coefficient from top end to base end.

| SMILES | Day 0 Tumor volume (mm^3) Vaverage ± SEM [1] | Day 21 Tumor volume (mm^3) Vaverage ± SEM [1] | Tumor inhibition rate TGI (%) [1] | Tumor regression [1] | Day 0 Body weight (g) Waverage ± SEM [1] | Papp A→B at 2 h, 10 μM [2] | Papp B→A at 2 h, 10 μM [2] | efflux ratio at 2 h, 10 μM [2] |
| --- | --- | --- | --- | --- | --- | --- | --- | --- |
| [2H]C([2H])([2H])N1CCC[C@H]1COc1nc2c(c(N3CCN(C(=O)C=C)[C@@H](CC#N)C3)n1)CCN(c1cccc3cccc(C)c13)C2 [Compound 42, 2-((S)-1-acryloyl-4-(7-(8-methylnaphthalen-1-yl)-2-(((S)-1-(methyl-d3)pyrrolidin-2-yl)methoxy)-5,6,7,8-tetrahydropyrido[3,4-d]pyrimidin-4-yl)piperazin-2-yl)acetonitrile] | 150 ± 9 mm^3 | 151 ± 18 mm^3 | 99.8% | 4/8 | 22.8 ± 0.6 g |  |  |  |
| [2H]C([2H])([2H])c1cccc2cccc(N3CCc4c(nc(OC[C@@H]5CCCN5C)nc4N4CCN(C(=O)C=C)[C@@H](CC#N)C4)C3)c12 [Compound 1, 2-((S)-1-acryloyl-4-(7-(8-(methyl-d3)naphthalen-1-yl)-2-(((S)-1-methylpyrrolidin-2-yl)methoxy)-5,6,7,8-tetrahydropyrido[3,4-d]pyrimidin-4-yl)piperazin-2-yl)acetonitrile] | 150 ± 10 mm^3 | 153 ± 14 mm^3 | 99.5% | 3/8 | 22.5 ± 0.5 g | 0.63 ×10⁻⁶ cm/s | 5.5 ×10⁻⁶ cm/s | 8.7 |
